Results reported in patent publication US8906901B2, “Administration of dipeptidyl peptidase inhibitors” (priority 2005, dated 2014).

System: db/db (BKS.Cg—+Lepr^db/+Lepr^db) mice
Assay: Plasma glucose after 21 days of administration in powder chow, alone or with pioglitazone
Type: in vivo
Conditions: male db/db mice, 21 days in chow, fed condition; 0.03% (w/w) succinate salt of Compound I and/or 0.0075% (w/w) pioglitazone hydrochloride; mean (n=7) ± SD
Source text: Male db/db (BKS.Cg—+Lepr^db/+Lepr^db) mice (6 weeks of age, CLEA Japan (Tokyo, Japan)) were divided into 4 groups (n=7 in each group) comprising Group A to Group D. Group A had free access to CE-2 powder chow (CLEA Japan) for 21 days. […] During 21 days of administration of the powder chow, there were not significant differences in the administration amount of the powder chow in the above 4 groups. After 21 days of administration of the powder chow, blood samples were taken from the orbital veins of the mice by capillary pipette under feeding condition, and plasma glucose levels were enzymatically measured by using Autoanalyzer 7080 (Hitachi, Japan). The values in the table means average (n=7)±standard deviation.

## Cn1c(=O)cc(N2CCC[C@@H](N)C2)n(Cc2cc(F)ccc2C#N)c1=O [Compound I, 2-[6-(3-Amino-piperidin-1-yl)-3-methyl-2,4-dioxo-3,4-dihydro-2H-pyrimidin-1-ylmethyl]-4-fluoro-benzonitrile]
  Plasma Glucose: 410.3 ± 47.9 mg/dL
